What was measured:
Format in all cases: physicochemical
[1] = Particle size distribution by laser diffraction (Sympatec) after processing; conditions: for D10 / D50 / D90: micronized/annealed GP, scale-up ~1 kg batches, mean of n=3 replicates per collector; for Physical stability after micronization judged from size distribution: laser diffraction, Tables 4 and 5; for X50 / X90: micronized GP, sampled immediately after processing
From the text: When referred to herein, the term “optical diameter” indicates the size of a particle as measured using a laser diffraction particle size analyzer equipped with a dry powder dispenser (e.g., Sympatec GmbH, Clausthal-Zellerfeld, Germany).
(§1) A portion of the micronized GP was also conditioned using an in-process conditioning system wherein nitrogen conditioning gas was supplied to the in-process conditioning system and was controlled for flow rate, temperature and humidity. The conditioning gas was humidified through a droplet evaporation chamber after which it was directed to a mixing zone. In the mixing zone, the conditioning gas was mixed with the jet-milled aerosol comprising the micronized GP. The aerosol then entered a conditioning zone where annealing of the micronized GP occurred. The particle residence time through the conditioning zone was adjusted by means of the conditioning zone chamber geometry and/or the gas flow rate through the conditioning zone chamber. After passing through the conditioning zone, the micronized GP particles reached the cyclone-collection zone where the solid particles were separated from the gas phase and transported to a collection vessel. Upon completion of the batch processing, the collector was disengaged and transferred to a glove box for sampling. The sampling occurred in a <5% relative humidity environment. Samples were then analyzed for particle size distribution and amorphous content.
Both micronized sucrose batches were analyzed for particle size distribution by Sympatec laser diffraction.

[2] = Amorphous content by (dynamic) vapor sorption; conditions: for % Amorphous Content Initial: micronized GP batches
From the text: as §1
The amorphous content by vapor sorption and particle morphology for both batches were also assessed. FIG. 9 provides the ethanol vapor sorption isotherm at 25° C. for both batches of micronized budesonide.
The amorphous content by vapor sorption and particle morphology for both batches were also assessed. FIG. 11 provides the ethanol vapor sorption isotherm at 25° C. for both batches of micronized fluticasone.
All batches were also analyzed for amorphous content by dynamic vapor sorption using n=2 replicates per collector.
The amorphous content by vapor sorption and particle morphology for both batches of micronized sucrose were also assessed. FIG. 13 provides the water vapor sorption isotherm at 25° C. for both batches of micronized sucrose.

[3] = Particle size distribution by laser diffraction (Sympatec) after processing; conditions: for D10 / D50 / D90: Compound A, PSD; for X10: micronized GP, sampled immediately after processing
[4] = Residual solvent content by GC analysis
Description: Residual solvent content of the material from different batches was also analyzed. […] Residual solvent is partially removed using primary (ethanol) and secondary (water) conditioning.
Compound A (IUPAC: 7-[(1R)-2-[2-[2-fluoro-5-[[4-(2-isopropylthiazole-4-carbonyl)-1-oxa-4,9-diazaspiro[5.5]undecan-9-yl]methyl]phenyl]ethylamino]-1-hydroxy-ethyl]-4-hydroxy-3H-1,3-benzothiazol-2-one; di[[(1S,4R)-7,7-dimethyl-2-oxo-norbornan-1-yl]methanesulfonic acid] salt) was received with a 3.8% ethanol residual content. This material had been previously micronized and conditioned according to the present description to reduce the presence of isopropyl (IPA) and ethanol (EtOH) by solvent exchange/removal. The material was exposed to another conditioning gas that included water vapor, and was mixed with the conditioning gas in a conditioning zone for approximately 1.5 hours.

[5] = listed as Batch A - Collector 1
[6] = listed as Batch A - Collector 2
[7] = conditioned GP, dynamic vapor sorption, n=2 replicates per collector
[8] = Compound A batches of Example 6
[9] = Compound A batches of Example 6, residual solvent
[10] = Compound A batches of Example 6, residual solvent, listed as Compound A, Raw (un-milled)
[11] = Compound A batches of Example 6, residual solvent, listed as Compound A, 30° C./55% RS, 30° C./70% RH
[12] = micronized Compound A of Example 7, before/after about […] with water-vapor conditioning gas

Work on C[N+]1(C)CCC(OC(=O)C(O)(c2ccccc2)C2CCCC2)C1 (single isomer, unassigned) [Batch A, Glycopyrrolate] yielded a D10 [1, 5] of 0.52 μm, a D50 [1, 5] of 1.48 μm and a D90 [1, 5] of 3.02 μm. For the same compound, the D10 [1, 6] was 0.52 μm, the D50 [1, 6] was 1.47 μm and the D90 [1, 6] was 2.99 μm. For the same compound, the “Calculated Amorphous Content, Collector 1” value [2, 7] was 2.65% and the “Calculated Amorphous Content, Collector 2” value [2, 7] was 2.35%.
In the case of “7-[(1R)-2-[2-[2-fluoro-5-[[4-(2-isopropylthiazole-4-carbonyl)-1-oxa-4,9-diazaspiro[5.5]undecan-9-yl]methyl]phenyl]ethylamino]-1-hydroxy-ethyl]-4-hydroxy-3H-1,3-benzothiazol-2-one; di[[(1S,4R)-7,7-dimethyl-2-oxo-norbornan-1-yl]methanesulfonic acid] salt [Compound A, 30° C./70% RH]”, the D10 [3] was 0.6 μm, the D50 [3] was 1.6 μm and the D90 [3] was 3.1 μm. The “% Water” value [4, 8] was 3.4%, the “% EtOH (w/w)” value [4, 9] was 0.1% (w/w) and the “% IPA (w/w)” value [4, 9] was 3.6% (w/w).
With “7-[(1R)-2-[2-[2-fluoro-5-[[4-(2-isopropylthiazole-4-carbonyl)-1-oxa-4,9-diazaspiro[5.5]undecan-9-yl]methyl]phenyl]ethylamino]-1-hydroxy-ethyl]-4-hydroxy-3H-1,3-benzothiazol-2-one; di[[(1S,4R)-7,7-dimethyl-2-oxo-norbornan-1-yl]methanesulfonic acid] salt [Compound A, Raw (Un-milled)]” the D10 [3] was 1.1 μm, the D50 [3] was 3.7 μm and the D90 [3] was 16.3 μm. For the same compound, the “% EtOH (w/w)” value [4, 10] was 0.0% (w/w), the “% IPA (w/w)” value [4, 10] was 4.7% (w/w) and the “% Water” value ([4]; Compound A batches of Example 6, listed as Compound A, Raw (un-milled)) was 3.1%.
Compound “7-[(1R)-2-[2-[2-fluoro-5-[[4-(2-isopropylthiazole-4-carbonyl)-1-oxa-4,9-diazaspiro[5.5]undecan-9-yl]methyl]phenyl]ethylamino]-1-hydroxy-ethyl]-4-hydroxy-3H-1,3-benzothiazol-2-one; di[[(1S,4R)-7,7-dimethyl-2-oxo-norbornan-1-yl]methanesulfonic acid] salt [Compound A, 30° C./55% RS (ethanol); 30° C./70% RH (water)]” has a D10 [3] of 0.6 μm, a D50 [3] of 1.7 μm and a D90 [3] of 3.2 μm. The “% EtOH (w/w)” value [4, 11] was 1.2% (w/w), the “% IPA (w/w)” value [4, 11] was 2.1% (w/w) and the “% Water” value ([4]; Compound A batches of Example 6, listed as Compound A, 30° C./55% RS, 30° C./70% RH) was 3.4%.
With “7-[(1R)-2-[2-[2-fluoro-5-[[4-(2-isopropylthiazole-4-carbonyl)-1-oxa-4,9-diazaspiro[5.5]undecan-9-yl]methyl]phenyl]ethylamino]-1-hydroxy-ethyl]-4-hydroxy-3H-1,3-benzothiazol-2-one; di[[(1S,4R)-7,7-dimethyl-2-oxo-norbornan-1-yl]methanesulfonic acid] salt [Micronized Compound A, 30° C./70% RH (water)]” the “% EtOH (w/w)” value [4, 12] was 0.1% (w/w), the “% IPA (w/w)” value [4, 12] was 0.0% (w/w) and the “% Water” value [4, 12] was 3.6%.
With “7-[(1R)-2-[2-[2-fluoro-5-[[4-(2-isopropylthiazole-4-carbonyl)-1-oxa-4,9-diazaspiro[5.5]undecan-9-yl]methyl]phenyl]ethylamino]-1-hydroxy-ethyl]-4-hydroxy-3H-1,3-benzothiazol-2-one; di[[(1S,4R)-7,7-dimethyl-2-oxo-norbornan-1-yl]methanesulfonic acid] salt [Micronized Compound A, As Received]” the “% EtOH (w/w)” value [4, 12] was 3.8% (w/w), the “% IPA (w/w)” value [4, 12] was 0.1% (w/w) and the “% Water” value [4, 12] was 3.1%.
In the case of C[N+]1(C)CCC(OC(=O)C(O)(c2ccccc2)C2CCCC2)C1 (stereo not shown) [Batch 2D, Glycopyrrolate], the “% Amorphous Content Initial” value [2] was 0.9%.
For CCCC1O[C@@H]2C[C@H]3[C@@H]4CCC5=CC(=O)C=C[C@]5(C)[C@H]4[C@@H](O)C[C@]3(C)[C@]2(C(=O)CO)O1 (stereo partly shown) [Micronized Budesonide, Batch 2 (annealed)], the “Physical stability after micronization judged from size distribution” value [1] was “good physical stability”.
With “7-[(1R)-2-[2-[2-fluoro-5-[[4-(2-isopropylthiazole-4-carbonyl)-1-oxa-4,9-diazaspiro[5.5]undecan-9-yl]methyl]phenyl]ethylamino]-1-hydroxy-ethyl]-4-hydroxy-3H-1,3-benzothiazol-2-one; di[[(1S,4R)-7,7-dimethyl-2-oxo-norbornan-1-yl]methanesulfonic acid] salt [Compound A]” the “Ethanol residual content as received” value ([4]; Compound A as received, Example 7) was 3.8% and the “Residual isopropyl alcohol solvent after manufacture” value ([4]; Compound A before micronization, Example 6) was ~5%.
For C[N+]1(C)CCC(OC(=O)C(O)(c2ccccc2)C2CCCC2)C1 (stereo not shown) [Batch 2F, Glycopyrrolate], the “% Amorphous Content Initial” value [2] was 0.9%.
With C[N+]1(C)CCC(OC(=O)C(O)(c2ccccc2)C2CCCC2)C1 (stereo not shown) [Batch 2G, Glycopyrrolate] the “% Amorphous Content Initial” value [2] was 2.3%.
In the case of C[N+]1(C)CCC(OC(=O)C(O)(c2ccccc2)C2CCCC2)C1 (stereo not shown) [Micronized GP, Standard Jet Milling, Glycopyrrolate], the X10 [3] was 0.5 μm, the X50 [1] was 1.4 μm and the X90 [1] was 3.0 μm.
In the case of CCCC1O[C@@H]2C[C@H]3[C@@H]4CCC5=CC(=O)C=C[C@]5(C)[C@H]4[C@@H](O)C[C@]3(C)[C@]2(C(=O)CO)O1 (stereo partly shown) [Micronized Budesonide, Batch 1 (unannealed)], the “Physical stability after micronization judged from size distribution” value [1] was “potential agglomeration”.
In the case of C[N+]1(C)CCC(OC(=O)C(O)(c2ccccc2)C2CCCC2)C1 (stereo not shown) [Batch 2E, Glycopyrrolate], the “% Amorphous Content Initial” value [2] was 2.6%.
With C[N+]1(C)CCC(OC(=O)C(O)(c2ccccc2)C2CCCC2)C1 (stereo not shown) [Batch 2B, Glycopyrrolate] the “% Amorphous Content Initial” value [2] was 5.3%.
Compound “7-[(1R)-2-[2-[2-fluoro-5-[[4-(2-isopropylthiazole-4-carbonyl)-1-oxa-4,9-diazaspiro[5.5]undecan-9-yl]methyl]phenyl]ethylamino]-1-hydroxy-ethyl]-4-hydroxy-3H-1,3-benzothiazol-2-one; di[[(1S,4R)-7,7-dimethyl-2-oxo-norbornan-1-yl]methanesulfonic acid] salt [Compound A, Unannealed]” has a D10 [3] of 0.6 μm, a D50 [3] of 1.6 μm and a D90 [3] of 3.1 μm. The “% Water” value [4, 8] was 3.0%, the “% EtOH (w/w)” value [4, 9] was 0.2% (w/w) and the “% IPA (w/w)” value [4, 9] was 3.9% (w/w).
C[N+]1(C)CCC(OC(=O)C(O)(c2ccccc2)C2CCCC2)C1 (stereo not shown) [Micronized GP, In-Process Conditioning, Glycopyrrolate] showed an X10 [3] of 0.6 μm, an X50 [1] of 1.5 μm and an X90 [1] of 3.1 μm.
For C[N+]1(C)CCC(OC(=O)C(O)(c2ccccc2)C2CCCC2)C1 (stereo not shown) [Batch 1A, Glycopyrrolate], the “% Amorphous Content Initial” value [2] was 17.9%.
In the case of C[N+]1(C)CCC(OC(=O)C(O)(c2ccccc2)C2CCCC2)C1 (stereo not shown) [Batch 2C, Glycopyrrolate], the “% Amorphous Content Initial” value [2] was 0.9%.

Reference: patent publication US11471468B2, “Methods and systems for conditioning of particulate crystalline materials” (Pearl Therapeutics, Inc., priority 2013, dated 2022)
